# Results as given in patent US6526316B2, “Iontophoresis method” (Hisamitsu Pharmaceutical Co., Inc., priority 1997, dated 2003).
# Columns and labels:
# [1] = Serum hPTH(1-34) concentration during transdermal iontophoresis (Example 1); assay type: in vivo, rat; conditions: male SD rats; iontophoresis anode patch 200 μg or 400 μg; 0.1 mA/cm^2, 30 min current and 45 min rest repeated three times; radio immunoassay; FIG. 3
# Method: Hair on the abdominal skin of male, SD rats (7 weeks old) was shaved off. To the shaved part was attached the iontophoresis apparatus which comprises an anode patch containing 200 μg or 400 μg of hPTH(1-34) and a cathode patch without hPTH(1-34), as mentioned above. The apparatus was connected to an electric generator (50 kHz and 50% duty), and an electric current application using constant transport current (0.1 mA/cm^2) for 30 minutes and a 45-minute rest interval (corresponding to blood concentration of one pulse) was repeated three times. During the repetitions, blood was taken periodically, and concentration of hPTH(1-34) in serum was measured by radio immunoassay.
# [2] = Serum hPTH(1-34) concentration after repeated intradermal injection (Reference Example 1); assay type: in vivo, rat; conditions: intradermal injection three times at 1 hour intervals, 1 μg/kg or 5 μg/kg per dose
# Method: Female SD rats (12 weeks old) were ovariectomized and intradermally injected with an aqueous solution of hPTH(1-34) three times at 1 hour intervals at a one time administration dose of 1 μg/kg or 5 μg/kg. Concentration of hPTH(1-34) in serum of the rats was measured by radio immunoassay.
structure (smiles),measurement,setting,value
CC[C@H](C)[C@H](NC(=O)[C@H](CCC(=O)O)NC(=O)[C@H](CO)NC(=O)[C@@H](NC(=O)[C@@H](N)CO)C(C)C)C(=O)N[C@@H](CCC(N)=O)C(=O)N[C@@H](CC(C)C)C(=O)N[C@@H](CCSC)C(=O)N[C@@H](Cc1cnc[nH]1)C(=O)N[C@@H](CC(N)=O)C(=O)N[C@@H](CC(C)C)C(=O)NCC(=O)N[C@@H](CCCCN)C(=O)N[C@@H](Cc1cnc[nH]1)C(=O)N[C@@H](CC(C)C)C(=O)N[C@@H](CC(N)=O)C(=O)N[C@@H](CO)C(=O)N[C@@H](CCSC)C(=O)N[C@@H](CCC(=O)O)C(=O)N[C@@H](CCCN=C(N)N)C(=O)N[C@H](C(=O)N[C@@H](CCC(=O)O)C(=O)N[C@@H](Cc1c[nH]c2ccccc12)C(=O)N[C@@H](CC(C)C)C(=O)N[C@@H](CCCN=C(N)N)C(=O)N[C@@H](CCCCN)C(=O)N[C@@H](CCCCN)C(=O)N[C@@H](CC(C)C)C(=O)N[C@@H](CCC(N)=O)C(=O)N[C@@H](CC(=O)O)C(=O)N[C@H](C(=O)N[C@@H](Cc1cnc[nH]1)C(=O)N[C@@H](CC(N)=O)C(=O)N[C@@H](Cc1ccccc1)C(=O)O)C(C)C)C(C)C [hPTH(1-34)],blood concentration profile of hPTH(1-34) in serum,[1],three sharp peaks
same,maximum blood concentrations vs dose,[2],proportional to the injected doses
same,blood concentration profile of hPTH(1-34) in serum,"[2]; ovariectomized female SD rats, radio immunoassay, FIG. 1",three sharp pulses
